Test: Human HepG2 cell viability assay in 384 well format
Format: toxicity, cell-based
Set-up: dose 125 nL, time 70.5 hour; cytotoxicity at 70.5 h: concentration not given beside the values
Conditions: HepG2 cells, read-out: Inhibition

SMILES	cytotoxicity at 70.5 h
O=C(NC1CC(=O)N(C2Cc3ccccc3C2)C1)c1ccoc1 (stereo not drawn)	-2.92%
CC(CC(=O)c1ccco1)NC(=O)c1ccccn1 (stereo not drawn)	-10.8%
CN1CCC(CN(C)C(=O)c2cc(C3CCCN3C)ccn2)CC1 (stereo not drawn)	-6.76%
O=C1CCCCN1Cc1cccc(OC(F)F)c1	4.41%
CNS(=O)(=O)CCn1cc(-c2ccc(OC)c(OC)c2)nn1	-4.16%
NC(=O)CN1CCC(c2cc(C(F)(F)F)n3ccnc3n2)CC1	-3.15%
O=C(c1cc[nH]n1)N1CCC(F)(F)C2(CCN(c3ccccn3)C2)C1 (stereo not drawn)	11%
CCC(O)CN1CCN(C(=O)c2ccc(N(C)C)nn2)CC1 (stereo not drawn)	-2.61%
CCN(Cc1cnn(C)c1)C[C@H]1CC[C@@H](Cc2ccc(C#N)cc2)O1	-17.4%
Cc1nn(-c2ccc(C(=O)O)cc2)c2c1C(C(F)(F)F)SCC(=O)N2 (stereo not drawn)	-5.65%
CSCC(CCO)NC(=O)Nc1ccc(C)cc1Br (stereo not drawn)	0.54%
Cc1ccc(OC2(C(=O)O)CCN(C(=O)c3ccoc3C)CC2)cn1	-0.44%
Fc1ccc(CNCc2cc(Br)c3c(c2)OCO3)cc1	7.59%
O=C(O)c1csc(S(=O)(=O)Nc2cccc(OC(F)F)c2)c1	-12.7%
CO[C@H]1CCN(S(=O)(=O)c2cn(C)cn2)[C@H]1Cc1ccccc1	0.174%
CCCSCC(=O)N1CCN(c2ccc(C)cc2)CC1C (stereo not drawn)	-14.9%
Cc1csc(C(=O)N2CC[C@H](Oc3cccnc3C)[C@@H](O)CC2)c1	14%
Cc1cnc(CN(C)C2CCN(Cc3nccn3C)C2)o1 (stereo not drawn)	-3.1%
CC(C)N1CCC(CNCc2c[nH]nc2C(C)(C)C)C1 (stereo not drawn)	-0.871%
CC(=O)N1CCN(C(=O)NCCCN(C(C)C)S(C)(=O)=O)CC1	-8.44%
Fc1cccc(C2CCCCN2Cc2nc(-c3cnccn3)no2)c1 (stereo not drawn)	-1.63%
O=C(c1cnccn1)N1CCCC(Cc2cccc3ncccc23)C1 (stereo not drawn)	-4.96%
O=C(c1cscn1)N1CCc2ncc(CN3CCOCC3)n2CC1	-15.7%

SMILES	cytotoxicity at 70.5 h
Cc1nn(C)c2c(=O)n(CC(=O)NCc3ccccn3)ccc12	0.706%
CC(C)(C)CC(NC(=O)c1nc(=O)[nH][nH]1)c1ccc(F)cc1 (stereo not drawn)	-3.76%
CCc1nc(CN2CCOC(CN(CC)c3cccnn3)C2)cs1 (stereo not drawn)	-12.8%
CC(C(=O)N(C)C)S(=O)(=O)c1cc2c(cc1Cl)OCCO2 (stereo not drawn)	-6.12%
CCc1ncc2c(n1)CN(Cc1nc(-c3ccsc3)oc1C)CC2	1.83%
CN(CCCC1CCCO1)C(=O)c1cccc(C#N)c1 (stereo not drawn)	-5.92%
O=C(NCCCC(=O)N1Cc2ccccc2C1)NCc1cccnc1	-0.375%
COCCCN1CCCC12CCN(Cc1cccnc1OC)CC2	1.58%
CC(=O)N1CCOC2(CCCN(C(=O)CCN3CCCCC3)C2)C1 (stereo not drawn)	-1.24%
CN(C)c1cc(CNC(=O)c2n[nH]c(=O)c3ccccc23)ccn1	12.8%
Cc1oc(-c2cccs2)nc1C(=O)N(C)C1(C#N)CCC1	-17.6%
O=C(c1ccc(C2CCCN2C(=O)c2ccoc2)s1)N1CCOCC1 (stereo not drawn)	-1.44%
CN(Cc1nc(Cc2cccc(C(F)(F)F)c2)no1)C1CCOCC1	-5.63%
O=C(c1ccc2c(c1)COC2)N1CCN(CCO)CC1	-3.79%
COCCN1C[C@@H](C)[C@@]2(COCCN(C(=O)c3ccccn3)C2)C1	-4.02%
CCS(=O)(=O)c1ccccc1N1CCC(N)CC1	-3.9%
c1cnn(CCC2CCCCN2Cc2cnc(C3CCCCC3)nc2)c1 (stereo not drawn)	-8.97%
Cn1cnc2c1C(C(=O)N1CCCC1)N(CC1CC1)CC2 (stereo not drawn)	-9.9%
CCCn1nnnc1CN(CC)CC1COc2ccccc2O1 (stereo not drawn)	2.13%
OC(c1ccccc1)C1CCN(Cc2csc(-c3ncccn3)n2)CC1 (stereo not drawn)	-7.96%
CN(CC(N)=O)Cc1c(Cl)ccc2cccnc12	-2.22%
CN(C)c1ccc(CN2CCN(c3ccc(C#N)cc3)C(=O)C2)cn1	-7.99%
Cc1cc(CN(C)C(=O)NC2CCCC2)no1	-7.06%

SMILES	cytotoxicity at 70.5 h
CC(C)(C)CCCC(=O)Nc1ccnn1C1CCS(=O)(=O)C1 (stereo not drawn)	-6.88%
CC(=O)NC[C@]1(O)CCN(C(=O)c2ccc(F)c(Cl)c2)C[C@H]1O	-6.22%
Cc1ncc(CN2CCN(C(=O)N(C)C)[C@@H]3CS(=O)(=O)C[C@@H]32)cn1	-26.5%
N#Cc1cccc(N2CCC(CO)(CCc3ccccc3)CC2)n1	-5.51%
CCNC(=O)[C@@H]1C[C@@H](N)CN1C(=O)Cc1cc(C)ccc1C	-8.37%
O=C(O)c1cc(C2=CCCCC2)cc(S(=O)(=O)NCc2ccccn2)c1	-8.44%
Cc1cccc(C(=O)N2C[C@@H]3OCCN(C(C)C)[C@@H]3C2)n1	-0.427%
CC1c2ncc(CN3CCN(C)CC3)n2CCN1Cc1ccccn1 (stereo not drawn)	-0.798%
CN(C)CC(=O)N1CCc2cccc(S(=O)(=O)N3CCOCC3)c2C1	0.694%
CCn1c(NCc2ccccn2)nc2c(C)nn(C)c2c1=O	-3.41%
Cc1csc(N2CCCN(C(=O)c3ccoc3C)CC2)n1	-4.74%
CCc1nc(CN(Cc2cccs2)CC2CCCO2)no1 (stereo not drawn)	1.39%
Cc1cc(C)n(CC(=O)N2CCC(c3nc(C(C)C)no3)CC2)n1	-7.07%
c1ccc(CN2CCc3nnc(COc4ccccn4)n3CC2)nc1	13.9%
Cc1cccc2c1NC1(CCCC1)NC2=O	-13.5%
CCOCC(C)(C)NC(=O)Nc1cc(F)ccc1OC	-5.66%
NC(=O)C1CCN(C(=O)NCc2ccccc2Cn2cncn2)CC1	-3.83%
Fc1ccccc1CNc1ccnc(C2CCNCC2)c1	18%
O=C1Nc2ccccc2CNC12CCN(CC1CCNC1)CC2 (stereo not drawn)	-11%
Cc1noc(C)c1CN1CCc2ncnc(-c3ccc(F)cc3)c2CC1	2.47%
O=C(CCCNC(=O)Nc1ccc(F)cc1F)Nc1cn[nH]c1	-5.08%
O=C(CCc1cn[nH]c1)N1CCC(C2CCN(c3ncccn3)CC2)C1 (stereo not drawn)	0.44%
COC(C)(C)CC(C)NCc1cn2ccccc2n1 (stereo not drawn)	-16.8%

SMILES	cytotoxicity at 70.5 h
Cc1noc(CN(Cc2cccs2)C2CCS(=O)(=O)C2)n1 (stereo not drawn)	-3.18%
CCc1nc(CN2CC[C@@](O)(CCOC)[C@H](C)C2)cs1	17.7%
COc1cccc(CNC(=O)CN2CCCC(Cn3cncn3)C2)c1 (stereo not drawn)	-1.72%
N#CC1CCCN(S(=O)(=O)c2ccc(C(=O)NCC(F)F)cc2)C1 (stereo not drawn)	3.7%
O=C1N(Cc2ccccc2F)CCCC12CCN(C1CCSCC1)C2 (stereo not drawn)	-4.98%
NC(=O)CC1CCN(S(=O)(=O)N2CCCC2c2ccco2)CC1 (stereo not drawn)	-5.7%
CCC(=O)N1CCCC1c1nc(N(C)C)ncc1-c1ccc(Cl)cc1 (stereo not drawn)	2.05%
COc1ccc(CC(=O)NCCn2nc3ccccn3c2=O)cc1	12.9%
O=C(Cc1cccs1)N1C[C@@H]2CN(Cc3ccoc3)CCO[C@@H]2C1	-15.2%
CCn1cc(NC(=O)NCCN2CCCCCC2=O)cn1	-6.34%
COc1cc(C(=O)Nc2nc(C)no2)cc(OC)c1Br	27.4%
Cn1cc(CN2CCC3(C2)CN(Cc2ccsc2)C3)cn1	-6.34%
CN1CCC(N[C@@H]2CO[C@H](CNC(=O)Nc3ccccc3)[C@H]2O)CC1	-2.44%
CCN1CCN(C(=O)c2csnn2)c2ccccc21	9.42%
Cc1nc(C)n(C2CCCN(C(=O)c3ccc(N(C)C)nn3)C2)n1 (stereo not drawn)	-3.22%
O=C1CCC2(CCN(S(=O)(=O)c3ccccc3)CC2)N1CC1CC1	-12.5%
CCc1nc2c(N3CCCC(c4nccn4CCOC)C3)ncnc2o1 (stereo not drawn)	26.1%
CC(C)(C)c1nc(NS(=O)(=O)c2ccc(F)cc2)no1	-17.2%
CCCc1n[nH]c(C2CN(C(=O)c3cccc4[nH]ncc34)CCO2)n1 (stereo not drawn)	-3.81%
Cc1ccc(CN(Cc2nc3c(cnn3C)c(=O)[nH]2)C(C)C)s1	-0.211%
CCC1=N[C@@]2(CC[C@@H]3CN(Cc4ccc(F)cc4)C[C@@H]32)C(=O)N1C	0.293%
CCc1noc(C)c1C(=O)NCc1cc[nH]n1	0.164%
CC(O)CN1CCN(C(=O)c2cc3ccccc3[nH]c2=O)CC1 (stereo not drawn)	-11%

SMILES	cytotoxicity at 70.5 h
CC(C)OCCN1CCN(c2ccc(CN(C)C)cn2)CC1	8.47%
CCc1nc(NS(=O)(=O)c2cc(C)c(F)cc2Cl)no1	25.9%
O=C([C@H]1COC[C@H]2CN(CC3CC3)C[C@H]21)N1CCOCC1	-2.68%
CC(C)c1nc(CN2CCCC2CN2CCCC2)cs1 (stereo not drawn)	-7.95%
CNc1cc(C2CN(Cc3cccnc3NC)CCO2)nc(C)n1 (stereo not drawn)	-2.49%
Cc1nc(CN2CCC3(CCN(c4cnn(C)c4)C3=O)C2)cs1 (stereo not drawn)	-14.5%
Cc1cc(C(C)NC(=O)c2ccc(O)nc2)c(C)o1 (stereo not drawn)	2.4%
Cc1cccc(C)c1OC1CN(Cc2cnc(N3CCCC3)nc2)C1	27.2%
Cn1cc(CN2CCC3(CC2)CCN(Cc2ccccn2)CC3)cn1	12%
COc1nc(C)c(C(=O)NCc2cc(N3CCOCC3)ncn2)s1	-2.68%
Cc1cc(C)nc(C2CCN(C(=O)CCn3ncc4ccccc43)C2)n1 (stereo not drawn)	2.78%
Cc1csc(CN2CCC(C(=O)O)(n3ccc(-c4ccco4)n3)CC2)n1	-7.21%
Cc1ccccc1N1CC(C)N(Cc2ccc(C)c(F)c2F)CC1=O (stereo not drawn)	5.81%
CC(C)(C)OC(=O)NCC1CCCCN1Cc1ccncc1 (stereo not drawn)	-1.8%
CC(=O)N1CC[C@H]2OCC[C@@H](C(=O)NCc3ccco3)[C@H]2C1	-12.4%
COc1c(C2CCCN2Cc2nc(C3CC3)no2)c(C)nn1C (stereo not drawn)	9.69%
Cc1ccc(C)c(NS(=O)(=O)c2cc3c(c(C(=O)O)c2)OCCO3)c1	-8.38%
Cc1nc(O)c2nnn(C[C@H]3CCCN3C(=O)C(C)(C)C)c2n1	-13.1%
Cn1cc(CN2CCN3C[C@H](Oc4cccnc4)C[C@H]3C2)cn1	-1.85%
COc1cccc(C(=O)NS(=O)(=O)c2cc(Cl)sc2Cl)c1OC(F)F	-7.95%
CC(=O)NC1CCN(c2nc(C)nc3c2c(C)nn3C)C1 (stereo not drawn)	20.8%

— ChEMBL document CHEMBL3507680, “University of Dundee, Gates Library screen for HepG2 cell viability”
